Test results as given in US5283372A, “Preparation of purified optical isomers of desflurane” (Anaquest, Inc., priority 1993, dated 1994).
“Also recorded” adds a separate entry of the source.

Legend:
[1] = tested on: Male Swiss-Webster mice (loss of righting); assay: Loss of righting (LOR) in mice: potency, onset and recovery of inhaled anesthetic; assay type: in vivo, mouse (Swiss-Webster); details: mouse; for Recovery (mean time to ambulation) / Onset (mean time to LOR): at the EC50 concentration; for Onset (mean time to LOR): six animals; for EC50 (loss of righting): inhalation in 1900 ml container flushed with 100% oxygen, LOR within two minutes and supine for thirty seconds, * significant at P<0.05
Experimental: Male Swiss-Webster mice, about 22-25 g, were allowed free access to food and water and housed ten to a cage in a temperature (22.2°) and humidity (50%) controlled vivarium with a twelve hour light-dark cycle.
The test anesthetic was pipetted into a 1900 ml container previously flushed for one minute with 100% oxygen. The container was sealed, rotated to insure complete evaporation of test compound and allowed to stand for five minutes. The approximate concentration of the anesthetic was calculated. Six animals were tested at each concentration of racemate and its purified optical isomers. The animals were placed in the container in groups of three. The container was rotated periodically.
The percentage of mice to lose their righting ability within two minutes and remain supine for thirty seconds was noted. Loss of righting (LOR) at four concentrations, including EC0 and EC100, were used to determine the EC50. Subsequently, onset (defined as the mean time for six animals to LOR) and recovery (defined as the mean time to ambulation) were determined at the EC50 concentration. Potency (defined by the dose-response curve) of each compound was compared using a parallel line analysis. Onset and recovery means were compared using a Student's T-Test P<0.05. The results are reported in Table I. In the Table, "S.D." is standard deviation, "C.L." is confidence level and "EC50 " is the effective concentration in one half of the animals tested.

[2] = tested on: Male Sprague-Dawley rats (loss of righting); assay: Loss of righting (LOR) in rats: onset and recovery at EC100; assay type: in vivo, rat (Sprague-Dawley); details: rat; for Recovery (of righting): EC100 concentration, removed five minutes after LOR; for Onset of LOR: at EC100 concentration, five rats per anesthetic
Experimental: (§1) Male Sprague-Dawley rats were maintained as were the mice in Example 7. The animals were trained to maintain their balance for ninety seconds on a rotarod revolving at 10 rpm. The animals were allowed to rest five minutes and again trained to remain on the rotating rotarod for ninety seconds.
(§2) The rats were individually placed into containers which had been purged with 100% oxygen for one minute, and which contained a known concentration of racemic desflurane, or its positive isomer or negative isomer which had been previously determined to be equal to the EC100. Five rats were utilized for each anesthetic.
The onset of LOR was recorded for each animal. The animals remained in the container for five minutes following LOR, and were then removed. Recovery was determined, and the mean calculated.
Onset and recovery were compared across anesthetics using a Student's T Test.

[3] = tested on: Male Sprague-Dawley rats (recovery of motor coordination); assay: Rotarod testing in rats after recovery of righting (Rotarod Index); assay type: in vivo, rat (Sprague-Dawley); details: for Rotarod Index (ROI): ROI=(First+Second×2/3+Third×1/3)/3, average time on rod in seconds at 0, 90, 180 seconds after recovery of righting, maximum 60, rotarod 10 rpm
Experimental: as §1, §2
Following recovery of righting, the animals were placed on the rotarod 0, 90, and 180 seconds thereafter and the length of time they were able to remain on the rod was recorded in each instance. Animals that remained on the rod for a full ninety seconds were not subsequently tested. The durations of maintaining balance were noted and averaged, and the number of animals meeting the ninety second criterion were recorded at each time interval.
A Rotarod Index (ROI) was then calculated according to the following formula.
ROI=(First+Second×2/3+Third×1/3)/3 where First, Second and Third are the average time on the rod in seconds for the respective time intervals. Animals remaining on the rod for the full ninety seconds during either the interval beginning at zero time or ninety seconds were scored with ninety seconds for all subsequent intervals. Therefore, the maximum ROI attainable was […]. The ROI value measures the recovery of motor coordination following drug-induced LOR.

SMILES	Recovery (mean time to ambulation) [1] [min]	Onset (mean time to LOR) [1] [min]	EC50 (loss of righting) [1] [%]	Recovery (of righting) [2] [min]	Onset of LOR [2] [min]	Recovery time (in words) ([2]; comparison of isomers)	Rotarod Index (ROI) ([3]; rat)	Potency (in words) ([1]; highly purified positive isomer, comparison with negative isomer or racemate, listed as positive isomer of desflurane)	Rotarod test / time to become "street fit" (in words) ([3]; comparison with racemate and negative isomer)	ROI value (in words) ([3]; rat, comparison of isomers)
FC(F)OC(F)C(F)(F)F (single isomer, unassigned; (-)) [Negative Isomer, (-)-2-(difluoromethoxy)-1,1,1,2-tetrafluoroethane]	0.25	1.05	4.6	0.31	1.05	faster recovery time	28.8	–	–	–
FC(F)OC(F)C(F)(F)F (single isomer, unassigned; (+)) [Positive Isomer, (+)-2-(difluoromethoxy-1,1,1,2-tetrafluoroethane]	0.31	1.44	4.1	0.88	0.92	–	38.6	greater potency; also recorded: improved potency	clearly superior in the rotarod test; also recorded: superior to the racemate and the negative isomer in terms of the time in which a patient would become "street fit"	larger ROI value
FC(F)OC(F)C(F)(F)F (racemic) [Racemic Desflurane, 2-(difluoromethoxy)-1,1,1,2-tetrafluoroethane, reference compound]	0.12	1.72	4.75	1.38	1.04	–	32.4	–	–	–
